Assay results reported in US20210285031A1, “FRET BASED PROTEIN BIOSENSOR FOR DETECTION OF CYCLIC DINUCLEOTIDES” (University of Washington, priority 2020, published 2021).

How the values were obtained:
STING = conditions: background; cited from earlier work
[1] = biological target: T1, murine STING CTD (mSTING-CTD; CDN binding domain SEQ ID NO:33) (Mus musculus, UniProt Q3TBT3); experiment: DRaCALA radioactive nucleotide binding assay, STING-CTD; conditions: 500 μM unlabeled nucleotide, ~1 nM [32P] 2′3′-cGAMP
T1 construct: 6xHis; made in house; host or cells: E. coli Rosetta (DE3)pLysS
T1 sequence (Q3TBT3 134-378 limits assumed): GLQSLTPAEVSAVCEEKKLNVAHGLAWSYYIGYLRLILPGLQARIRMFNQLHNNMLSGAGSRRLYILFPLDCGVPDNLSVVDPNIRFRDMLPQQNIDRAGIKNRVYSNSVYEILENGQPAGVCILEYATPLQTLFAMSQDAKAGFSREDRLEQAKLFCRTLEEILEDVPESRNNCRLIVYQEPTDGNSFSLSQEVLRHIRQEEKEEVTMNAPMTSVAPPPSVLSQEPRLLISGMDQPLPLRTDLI
From the text: (§1) FIGS. 1A-1H. BioSTING Design and Optimization. (1A) Schematic representation of full-length STING (top) and BioSTING with additional GGSGG linker between mTFP and STING-CTD (bottom). Abbreviations are defined as follows: TM (transmembrane region), DD (dimerization domain), CBD (CDN binding domain), and CTT (C-terminal tail). (1B) Overlay and structural alignment of human STING CTD in apo (“blue”) and c-di-GMP bound (“gray”) states (PDB 4F5E and 4F5D, respectively). […] The N and C-terminal helices of the CTD are highlighted with the terminal residues in red and their associated displacement following ligand binding labeled in angstroms. (1C) Model of the FRET increase which occurs upon CDN binding. Generated with Biorender.com. […] In all panels, individual data points of n=2 biological replicates are shown.
FIGS. 6A and 6B. BioSTING development and characterization.
(§2) Finally, the dissociation kinetics were monitored by determining the rate that cold nucleotide could compete off bound radioactive nucleotide. […] [^32P] […] Binding assays were performed in binding buffer [40 mM Tris pH 7.5, 100 mM NaCl, 20 mM MgCl2] at room temperature.

BioSTING = biological target: T2, BioSTING (Mus musculus, UniProt Q3TBT3); experiment: DRaCALA binding specificity: excess unlabeled nucleotides competing with [32P] 2′3′-cGAMP; parameters: species or system murine; conditions: 500 μM excess unlabeled nucleotide, ~1 nM [32P] 2′3′-cGAMP
T2 construct: made in house; host or cells: E. coli Rosetta (DE3)pLysS
T2 sequence (Q3TBT3 with tags, fused parts or gaps): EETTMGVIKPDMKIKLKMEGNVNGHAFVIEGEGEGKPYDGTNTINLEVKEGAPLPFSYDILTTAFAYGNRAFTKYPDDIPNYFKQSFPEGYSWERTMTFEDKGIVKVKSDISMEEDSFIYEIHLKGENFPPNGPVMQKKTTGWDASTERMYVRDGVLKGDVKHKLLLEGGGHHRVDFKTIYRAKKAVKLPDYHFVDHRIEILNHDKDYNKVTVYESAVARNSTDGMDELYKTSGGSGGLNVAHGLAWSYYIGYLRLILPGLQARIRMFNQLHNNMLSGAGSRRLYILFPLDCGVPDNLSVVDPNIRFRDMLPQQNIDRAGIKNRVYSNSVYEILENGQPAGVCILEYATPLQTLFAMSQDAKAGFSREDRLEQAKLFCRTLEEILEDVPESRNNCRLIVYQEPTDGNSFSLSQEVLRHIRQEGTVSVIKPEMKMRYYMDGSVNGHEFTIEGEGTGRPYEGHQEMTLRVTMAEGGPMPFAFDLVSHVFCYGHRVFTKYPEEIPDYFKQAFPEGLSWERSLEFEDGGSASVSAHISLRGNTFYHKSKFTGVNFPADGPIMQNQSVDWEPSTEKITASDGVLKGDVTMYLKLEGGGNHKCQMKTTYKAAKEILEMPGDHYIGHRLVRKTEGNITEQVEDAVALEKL

[2] = biological target: T3, BioSTING (mTFP-GGSGG-murine STING CTD (L152-E335)-mKO2 FRET fusion; SEQ ID NO:34, CDN binding domain SEQ ID NO:33) (Mus musculus, UniProt Q3TBT3); experiment: DRaCALA radioactive nucleotide binding assay, BioSTING; conditions: 500 μM unlabeled nucleotide, ~1 nM [32P] 2′3′-cGAMP
T3 construct: His tag (inferred from Ni-NTA purification and the pET15b vector); made in house; host or cells: E. coli Rosetta (DE3)pLysS
T3 sequence (Q3TBT3 with tags, fused parts or gaps): T2 sequence (Q3TBT3 with tags, fused parts or gaps)
From the text: as §1, §2

[3] = biological target: T4, full length Lmo0553 fused to eCFP (N terminus) and eYFP (C terminus) (Listeria monocytogenes, UniProt Q8Y9H5); experiment: FRET response, full length Lmo0553 fusion; format: biochemical
T4 construct: recombinant, purified
From the text: To leverage these structural rearrangements, the FRET pair eCFP and eYFP were respectively fused to the N and C termini of full length Lmo0553. […] Additional engineering may have allowed for the generation of a FRET biosensor utilizing full length Lmo0553, but without a response to optimize, these efforts would have been arduous and potentially unsuccessful.

[4] = biological target: T5, CDA5 (eCFP-Lmo0553 Bateman domain (truncated at N-127)-eYFP FRET fusion; SEQ ID NO:36, Bateman domain SEQ ID NO:35) (Listeria monocytogenes, UniProt Q8Y9H5); experiment: In vitro FRET measurement, CDA5
[5] = biological target: T5, CDA5 (eCFP-Lmo0553 Bateman domain (truncated at N-127)-eYFP FRET fusion; SEQ ID NO:36, Bateman domain SEQ ID NO:35); experiment: DRaCALA radioactive nucleotide binding assay, CDA5
[6] = biological target: T6, CDA5 variant Y34A (parent CDA5, Lmo0553 Bateman domain) (Listeria monocytogenes, UniProt Q8Y9H5, Y34A); experiment: DRaCALA binding assay, CDA5 Y34A
Description: (§3) It was hypothesized that by replacing the stabilizing tyrosine ring with an alanine (Y34A), c-di-AMP binding would be minimized in a manner unlikely to disrupt protein stability. […] Next, increasing concentrations of c-di-AMP were added to purified CDA5 and Y34A CDA5 and analyzed by plate reader assay for FRET response.

[7] = biological target: Listeria monocytogenes Lmo0553, full length (Listeria monocytogenes, UniProt Q8Y9H5); experiment: DRaCALA radioactive nucleotide binding assay, full length Lmo0553
[8] = biological target: T6, CDA5 variant Y34A (parent CDA5, Lmo0553 Bateman domain); experiment: In vitro FRET measurement, CDA5 Y34A; conditions: increasing concentrations of c-di-AMP
Description: as §3

[9] = biological target: T7, cGAS (recombinant SUMO-mcGAS) (Mus musculus, UniProt Q8C6L5); experiment: cGAS activity assay measuring 2′3′-cGAMP production using BioSTING; format: biochemical; conditions: fixed cGAS; 250 μM ATP, 250 μM GTP, 50 ng ISD; 37° C.
T7 construct: product read by BioSTING
T7 sequence (Q8C6L5 whole entry): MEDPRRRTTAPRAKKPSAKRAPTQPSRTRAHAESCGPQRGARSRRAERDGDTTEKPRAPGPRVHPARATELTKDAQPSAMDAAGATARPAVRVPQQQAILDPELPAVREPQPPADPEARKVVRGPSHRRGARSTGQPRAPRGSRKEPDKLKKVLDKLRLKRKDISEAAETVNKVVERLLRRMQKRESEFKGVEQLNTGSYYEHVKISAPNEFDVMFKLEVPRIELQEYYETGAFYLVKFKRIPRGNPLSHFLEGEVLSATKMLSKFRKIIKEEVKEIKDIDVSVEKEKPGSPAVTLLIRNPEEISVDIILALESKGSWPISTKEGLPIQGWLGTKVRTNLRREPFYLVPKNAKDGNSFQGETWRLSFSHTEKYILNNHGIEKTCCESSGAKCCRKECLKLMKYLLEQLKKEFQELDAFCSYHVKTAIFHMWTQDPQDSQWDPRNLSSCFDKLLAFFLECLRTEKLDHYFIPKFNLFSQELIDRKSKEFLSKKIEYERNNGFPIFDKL
Description: FIGS. 2A-2F. Real time measurement of CDN synthesis and determination of CDN levels from cellular extracts. […]. In panels (2B)-(2D) and (2F), data are presented as mean±s.d. of n=3 (2B, 2F) or n=8 (2C, 2D) biological replicates.
BioSTING FRET assays are carried out in a 96-well format using a fluorescent plate reader making it amenable to in vitro high throughput screening efforts (FIG. 7B). […]. In addition to screening for modulators of CDN synthase activity, BioSTING could also potentially be used to screen directly for STING agonists and antagonists.
Enzyme assays were initiated by the addition of 1 mM ATP, 1 mM GTP and 1 μg ISD (FIGS. 2B, 7A, and 7B) or by the addition of 250 μM ATP, 250 μM GTP, and 50 ng ISD (FIGS. 2C, 2D, and 7C).

cGAS = conditions: literature value (Pfizer); read-out: reported IC50; cited from earlier work
[10] = excess (500 μM) unlabeled c-di-AMP, DRaCALA

Nc1nc2c(ncn2[C@@H]2O[C@@H]3COP(=O)(O)O[C@H]4[C@@H](O)[C@H](n5cnc6c(N)ncnc65)O[C@@H]4COP(=O)(O)O[C@H]3[C@H]2O)c(=O)[nH]1 [3′3′-cGAMP, 3′,3′-cyclic GMP AMP]
affinity for STING relative to 2′3′-cGAMP (STING): markedly reduced affinities

Nc1nc2c(ncn2[C@@H]2O[C@H](COP(=O)(O)OP(=O)(O)OP(=O)(O)O)[C@@H](O)[C@H]2O)c(=O)[nH]1 [GTP]
competition of bound [32P] 2′3′-cGAMP by unlabeled nucleotide [1]: not ATP, GTP, cAMP, or cGMP could compete off
competing off bound [32P] 2′3′-cGAMP (BioSTING): not
competition of bound [32P] 2′3′-cGAMP by unlabeled nucleotide [2]: not ATP, GTP, cAMP, or cGMP could compete off

Nc1ncnc2c1ncn2[C@@H]1O[C@H](COP(=O)(O)OP(=O)(O)OP(=O)(O)O)[C@@H](O)[C@H]1O [ATP]
competition of bound [32P] 2′3′-cGAMP by unlabeled nucleotide [1]: not ATP, GTP, cAMP, or cGMP could compete off
competing off bound [32P] 2′3′-cGAMP (BioSTING): not
competition of bound [32P] 2′3′-cGAMP by unlabeled nucleotide [2]: not ATP, GTP, cAMP, or cGMP could compete off

Nc1ncnc2c1ncn2[C@@H]1O[C@@H]2COP(=O)(O)O[C@H]3[C@@H](O)[C@H](n4cnc5c(N)ncnc54)O[C@@H]3COP(=O)(O)O[C@H]2[C@H]1O [3′3′-c-di-AMP, 3′3′-cyclic di-adenosine monophosphate]
FRET response upon the addition of c-di-AMP [3]: no FRET response was observed
EC50 [4]: 0.38 µM
kon (less than the sampling limit) ([4]; FRET responses stable immediately upon addition of c-di-AMP): < 10 s
Emax ([4]; read-out: FRET increase): 23%
Kd [5]: 5.87 µM
competition of bound [32P] c-di-AMP by unlabeled nucleotide [5]: only unlabeled c-di-AMP
koff (time for competition by unlabeled c-di-AMP) [5, 10]: completely within two seconds
c-di-AMP binding [6]: c-di-AMP bound to CDA5 but not the Y34A CDA5 point mutant control
Kd [7]: 4.83 µM
competition of bound [32P] c-di-AMP by unlabeled nucleotide [7]: only unlabeled c-di-AMP
koff (time for competition by unlabeled c-di-AMP) [7, 10]: completely within two seconds
affinity for STING relative to 2′3′-cGAMP (STING): markedly reduced affinities
FRET increase upon the addition of c-di-AMP [8]: CDA5 but not Y34A CDA5 produced a robust FRET increase

Nc1nc2c(ncn2[C@@H]2O[C@@H]3COP(=O)(O)O[C@H]4[C@@H](O)[C@H](n5cnc6c(=O)[nH]c(N)nc65)O[C@@H]4COP(=O)(O)O[C@H]3[C@H]2O)c(=O)[nH]1 [c-di-GMP, 3′,3′-cyclic di-GMP]
affinity for STING relative to 2′3′-cGAMP (STING): markedly reduced affinities

Nc1nc2c(ncn2[C@@H]2O[C@@H]3COP(=O)(O)O[C@H]3[C@H]2O)c(=O)[nH]1 [cGMP]
competition of bound [32P] 2′3′-cGAMP by unlabeled nucleotide [1]: not ATP, GTP, cAMP, or cGMP could compete off
competing off bound [32P] 2′3′-cGAMP (BioSTING): not
competition of bound [32P] 2′3′-cGAMP by unlabeled nucleotide [2]: not ATP, GTP, cAMP, or cGMP could compete off

O=C(NC1CCCCC1C(=O)O)c1cnn2c(O)cc(-c3ccccc3)nc12 (centres unmarked) [PF-06928215]
IC50 [9]: ~12 µM
IC50 (cGAS): 5 µM
